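Test compounds were applied to cells in 96-well plates for 48 hours at 5 doses. The concentration for 50% growth inhibition is given as GI50.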 Activity calls are given as the source filed them. No stated cut-off is given here; in the data, active = GI50 up to about 1.1 µM and inactive = higher.
What was measured:
Assay in all cases: NCI-60 cell line screen, 48 h
SW-620 = system: SW-620
ACHN = system: ACHN
HOP-92 = system: HOP-92
NCI/ADR-RES = system: NCI/ADR-RES
A498 = system: A498
UO-31 = system: UO-31
HL-60 = system: HL-60
KM12 = system: KM12
NCI-H522 = system: NCI-H522
CAKI-1 = system: CAKI-1
MDA-N = system: MDA-N
RPMI-8226 = system: RPMI-8226
MDA-MB-435 = system: MDA-MB-435
UACC-257 = system: UACC-257
TK-10 = system: TK-10
HCT-116 = system: HCT-116
OVCAR-4 = system: OVCAR-4
SK-MEL-28 = system: SK-MEL-28
EKVX = system: EKVX
SF-539 = system: SF-539

Row | SMILES | GI50 (SW-620) | GI50 (ACHN) | GI50 (HOP-92) | GI50 (NCI/ADR-RES) | GI50 (A498) | GI50 (UO-31) | GI50 (HL-60) | GI50 (KM12) | GI50 (NCI-H522) | GI50 (CAKI-1) | GI50 (MDA-N) | GI50 (RPMI-8226) | GI50 (MDA-MB-435) | GI50 (UACC-257) | GI50 (TK-10) | GI50 (HCT-116) | GI50 (OVCAR-4) | GI50 (SK-MEL-28) | GI50 (EKVX) | GI50 (SF-539)
1 | COc1cc(C2C(C#N)=C(N)OC3=C2CCS(=O)(=O)c2ccc(C)cc23)cc(OC)c1OC (configuration not stated) | > 100 µM (inactive) | > 100 µM (inactive) | > 100 µM (inactive) | > 100 µM (inactive) | > 100 µM (inactive) | > 100 µM (inactive) | > 100 µM (inactive) | > 100 µM (inactive) | > 100 µM (inactive) | > 100 µM (inactive) | > 100 µM (inactive) | > 100 µM (inactive) | > 100 µM (inactive) | > 100 µM (inactive) | > 100 µM (inactive) | > 100 µM (inactive) | > 100 µM (inactive) | > 100 µM (inactive) |  | 
2 | COc1c(C(=O)CC2c3c(cc4oc(C)cc(=O)c4c3OC)OC(=N)C2c2nc3ccccc3[nH]2)c(O)c(OC)c2occc12 (configuration not stated) | > 100 µM (inactive) | > 100 µM (inactive) | > 100 µM (inactive) | > 100 µM (inactive) | > 100 µM (inactive) | > 100 µM (inactive) | > 100 µM (inactive) | > 100 µM (inactive) | > 100 µM (inactive) | > 100 µM (inactive) | > 100 µM (inactive) | > 100 µM (inactive) | > 100 µM (inactive) | > 100 µM (inactive) | > 100 µM (inactive) | > 100 µM (inactive) | > 100 µM (inactive) | > 100 µM (inactive) | > 100 µM (inactive) | 
3 | CCOC(=O)/C=C(/C(=O)OCC)n1ccc(=O)n(CC(=O)OCC)c1=O | 0.265 µM (active) | 0.57 µM (active) | 0.251 µM (active) | 2.63 µM (inactive) | 14.8 µM (inactive) | 1.63 µM (inactive) | 0.143 µM (active) | 2.57 µM (inactive) | 0.196 µM (active) | 0.146 µM (active) | 2.44 µM (inactive) |  | 1.64 µM (inactive) | 2.44 µM (inactive) | 1.23 µM (inactive) | 1.01 µM (active) | 1.84 µM (inactive) | 1.68 µM (inactive) | 1.89 µM (inactive) | 2.96 µM (inactive)
4 | Cc1n[nH]c(C(F)(F)F)c1/N=N/N(C)C | > 100 µM (inactive) | 4.72 µM (inactive) | 8.32 µM (inactive) | 7.13 µM (inactive) | > 100 µM (inactive) | 1.61 µM (inactive) | 12.6 µM (inactive) | 7.57 µM (inactive) | 1.37 µM (inactive) | 1.64 µM (inactive) | > 100 µM (inactive) | 2.14 µM (inactive) | 14.5 µM (inactive) | 14.7 µM (inactive) | 7.91 µM (inactive) | 1.93 µM (inactive) |  | 17.9 µM (inactive) | 2.25 µM (inactive) | 5.28 µM (inactive)
5 | CN(Cc1ccccc1)c1cc(=O)n(C)c(=O)[nH]1 | > 100 µM (inactive) | > 100 µM (inactive) | > 100 µM (inactive) | > 100 µM (inactive) | 58.2 µM (inactive) | > 100 µM (inactive) | > 100 µM (inactive) |  | > 100 µM (inactive) | > 100 µM (inactive) | > 100 µM (inactive) | > 100 µM (inactive) | > 100 µM (inactive) | > 100 µM (inactive) | > 100 µM (inactive) | > 100 µM (inactive) | > 100 µM (inactive) | > 100 µM (inactive) |  | > 100 µM (inactive)
6 | CCn1c(-c2ccc(C)cc2)cs/c1=N\C(P(=O)(O)O)P(=O)(O)O | > 100 µM (inactive) | > 100 µM (inactive) | > 100 µM (inactive) | > 100 µM (inactive) | > 100 µM (inactive) | > 100 µM (inactive) | 0.337 µM (active) | > 100 µM (inactive) | > 100 µM (inactive) | > 100 µM (inactive) | > 100 µM (inactive) | > 100 µM (inactive) | > 100 µM (inactive) | > 100 µM (inactive) | > 100 µM (inactive) | > 100 µM (inactive) |  | > 100 µM (inactive) | > 100 µM (inactive) | > 100 µM (inactive)

From ChEMBL document CHEMBL1201862, “PubChem BioAssay data set” (2004)
